Results taken from US10420745B2 (priority 2015, dated 2019).

tested on: Clostridia perfringens; assay type: cell-based; conditions: minimum inhibitory concentration towards Clostridia perfringens, in vitro

Structure (SMILES)	MIC [mmol]
CCCC(=O)O [Butyric acid]	62
CCCC(=O)OCC(O)CO (stereo not shown) [Glyceryl monobutyrate]	125
CCC(=O)OCC(O)CO (stereo not shown) [Glyceryl monopropionate]	250
CCCCC(=O)OCC(O)CO (stereo not shown) [Glyceryl monovalerate]	15
CCC(=O)O [Propionic acid]	62
CCCCC(=O)O [Valeric acid]	15

tested on: Clostridium perfringens-induced necrotic enteritis; assay type: in vivo, broiler chicken; conditions: Ross 308 broilers, lower concentration in feed (2.5/2/1.5 kg/ton weeks 1/2/3), adsorbed on silica carrier, C. perfringens challenge days 17-20, scoring day 21; positive control 71%

Structure (SMILES)	animals within the group diagnosed as necrotic enteritis positive (macroscopic lesion score ≥2) [%]
CCCCC(=O)OCC(O)CO (stereo not shown) [Glyceryl monovalerate]	27
